From PubChem BioAssay AID2060912 (Molecular Pharmacology Branch, DTP, NCI, 2025)

Test system: HUVEC/MSC spheroids viability
Assay: Human HUVEC/MSC cell line growth inhibition [KRAS2];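 for viability, T/C: percent of DMSO vehicle control luminescence so 100% = untreated viability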
Conditions: for IC50: curve of first compound; for viability, T/C: stronger effect = lower value; active = viability on the fitted dose curve at most 10% of control; inactive = the rest
Summary of the method: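 The concentration series started at or near clinical Cmax (10 microM if not known) and fell in half-log increments, alone or in combination. Cells were stromal-only spheroids of pooled-donor HUVEC and hMSC (passage </=5), with different drug plates and layout from the tumor spheroid screens.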

CC(=O)OC12COC1CC(O)C1(C)C(=O)C(O)C3=C(C)C(OC(=O)C(O)C(NC(=O)OC(C)(C)C)c4ccccc4)CC(O)(C(OC(=O)c4ccccc4)C21)C3(C)C (configuration not stated) + CC1OCC2(CCN(c3cnc(Sc4ccnc(N)c4Cl)c(N)n3)CC2)C1N
0.176 µM: IC50 (second compound 10 µM)
> 3 µM: IC50 (second compound 0.0316 µM) | IC50 (second compound 0.1 µM) | IC50 (second compound 0.316 µM) | IC50 (second compound 1 µM) | IC50 (second compound 3.16 µM)
inactive: viability, T/C (second compound 0.0316 µM, first compound 0.00949 µM) 58% | viability, T/C (second compound 0.0316 µM, first compound 0.03 µM) 65.1% | viability, T/C (second compound 0.0316 µM, first compound 0.0949 µM) 67.3% | viability, T/C (second compound 0.0316 µM, first compound 0.3 µM) 58.4% | viability, T/C (second compound 0.0316 µM, first compound 0.949 µM) 68.1% | viability, T/C (second compound 0.0316 µM, first compound 3 µM) 73.6% | viability, T/C (second compound 0.1 µM, first compound 0.00949 µM) 67% | viability, T/C (second compound 0.1 µM, first compound 0.03 µM) 66% | viability, T/C (second compound 0.1 µM, first compound 0.0949 µM) 71.4% | viability, T/C (second compound 0.1 µM, first compound 0.3 µM) 57.9% | viability, T/C (second compound 0.1 µM, first compound 0.949 µM) 73.2% | viability, T/C (second compound 0.1 µM, first compound 3 µM) 72.5% | viability, T/C (second compound 0.316 µM, first compound 0.00949 µM) 56.1% | viability, T/C (second compound 0.316 µM, first compound 0.03 µM) 63.3% | viability, T/C (second compound 0.316 µM, first compound 0.0949 µM) 50% | viability, T/C (second compound 0.316 µM, first compound 0.3 µM) 53.6% | viability, T/C (second compound 0.316 µM, first compound 0.949 µM) 62.5% | viability, T/C (second compound 0.316 µM, first compound 3 µM) 68.4% | viability, T/C (second compound 1 µM, first compound 0.00949 µM) 67.2% | viability, T/C (second compound 1 µM, first compound 0.03 µM) 58% | viability, T/C (second compound 1 µM, first compound 0.0949 µM) 47.1% | viability, T/C (second compound 1 µM, first compound 0.3 µM) 52.1% | viability, T/C (second compound 1 µM, first compound 0.949 µM) 59% | viability, T/C (second compound 1 µM, first compound 3 µM) 58.5% | viability, T/C (second compound 3.16 µM, first compound 0.00949 µM) 49.8% | viability, T/C (second compound 3.16 µM, first compound 0.03 µM) 59.5% | viability, T/C (second compound 3.16 µM, first compound 0.0949 µM) 49.8% | viability, T/C (second compound 3.16 µM, first compound 0.3 µM) 54.2% | viability, T/C (second compound 3.16 µM, first compound 0.949 µM) 48% | viability, T/C (second compound 3.16 µM, first compound 3 µM) 56.2% | viability, T/C (second compound 10 µM, first compound 0.00949 µM) 55.6% | viability, T/C (second compound 10 µM, first compound 0.03 µM) 61.8% | viability, T/C (second compound 10 µM, first compound 0.0949 µM) 41.7% | viability, T/C (second compound 10 µM, first compound 0.3 µM) 50.3% | viability, T/C (second compound 10 µM, first compound 0.949 µM) 50.9% | viability, T/C (second compound 10 µM, first compound 3 µM) 46.7%
